According to ChEMBL document CHEMBL5584333, “Evo312: An Evodiamine Analog and Novel PKCβI Inhibitor with Potent Antitumor Activity in Gemcitabine-Resistant Pancreatic Cancer” (J Med Chem, 2024):

Experiments:
[1] = system: Gemcitabine-resistant PANC-1; assay: Cell cycle distribution in human Gemcitabine-resistant PANC-1 cells assessed as sub-G1 phase cells at 120 nM incubated for 24 hrs by RNase/PI staining based flow cytometric analysis (reference value: 0.30 %); format: functional
[2] = Toxicity in male BALB/c nude mouse xenografted with human Gemcitabine-resistant PANC-1 cells at 10 mg/kg, ip administered three times in a week for 20 days; format: organism-based; conditions: in vivo, 480 h, time 20 day

CC(=O)Oc1ccc2[nH]c3c(c2c1)CCN1C(=O)c2ccccc2N(C)[C@H]31
Activity [1]: 1.6%
Activity [2]: Non-Toxic
